# Measured values from publication PMC3906526 (Archives of Pharmacal Research, 2013).
# Target: c-Kit (Homo sapiens, UniProt P10721)
# Assay: AlphaBead
# Format: biochemical
# Chain of c-Kit (P10721 544-976): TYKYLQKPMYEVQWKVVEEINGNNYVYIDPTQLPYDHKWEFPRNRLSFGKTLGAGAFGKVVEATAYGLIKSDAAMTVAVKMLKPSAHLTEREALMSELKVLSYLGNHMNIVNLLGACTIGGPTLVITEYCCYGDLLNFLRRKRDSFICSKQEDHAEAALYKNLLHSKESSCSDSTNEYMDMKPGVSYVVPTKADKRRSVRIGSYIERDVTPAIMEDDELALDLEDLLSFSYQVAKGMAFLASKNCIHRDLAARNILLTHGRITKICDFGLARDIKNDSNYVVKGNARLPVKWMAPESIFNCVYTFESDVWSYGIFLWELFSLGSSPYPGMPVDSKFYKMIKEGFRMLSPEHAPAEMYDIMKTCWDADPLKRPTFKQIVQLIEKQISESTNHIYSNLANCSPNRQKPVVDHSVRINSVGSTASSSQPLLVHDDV
row,Compound,IC50 [µM]
1,"COc1ccc(-c2cc(=O)c3c(O)cc(O)cc3o2)cc1 [Y1, acacetin]",13.3
2,"O=c1cc(-c2ccc(O)cc2)oc2cc(O)cc(O)c12 [Y3, apigenin]",4.7
3,"O=c1cc(-c2ccc(O)c(O)c2)oc2cc(O)cc(O)c12 [Y4, luteolin]",1
